In patent publication US6235753A, “Inhibitors of the production of S-CD23 and the secretion of TNF” (priority 1996, dated 2001):
Like-named read-outs stand apart in the source and are kept apart here.

Key:
[1] = system: TNFα; assay: Inhibition of release of TNFα from human monocytes stimulated by LPS (TNF processing inhibition); format: cell-based; settings: Monocyte, read-out: TNF processing inhibition
Procedure: Procedure 3: The ability of test compounds to inhibit TNF release was investigated using the following procedure. Assay for inhibition of release of TNFα from human monocytes stimulated by lipopolysaccharide (LPS) endotoxin. […] The cell suspension is aliquoted in 24 well plates, 1 ml per well. Compounds to be tested are dissolved in neat dimethyl sulfoxide (DMSO) and added to culture with the final DMSO concentration at 0.1%. Compounds are added to cells in triplicate wells. TNFα release is stimulated by addition of LPS to the cells at a final concentration of 200 ng/ml. Appropriate control cultures are set up in triplicates also. The plates are incubated for 18-20 hrs at 37° C., 5% CO2, then centrifuged at 1000×g for 5 min. A specific ELISA for human TNFα (SmithKline Beecham) is used to measure TNF levels in the cell-free culture supernatants.

[2] = target: T1, human recombinant collagenase (Homo sapiens, UniProt P03956); assay: Collagenase Inhibition Assay; format: biochemical
T1 construct: made in house; host or cells: E. coli
T1 sequence (P03956 100-469): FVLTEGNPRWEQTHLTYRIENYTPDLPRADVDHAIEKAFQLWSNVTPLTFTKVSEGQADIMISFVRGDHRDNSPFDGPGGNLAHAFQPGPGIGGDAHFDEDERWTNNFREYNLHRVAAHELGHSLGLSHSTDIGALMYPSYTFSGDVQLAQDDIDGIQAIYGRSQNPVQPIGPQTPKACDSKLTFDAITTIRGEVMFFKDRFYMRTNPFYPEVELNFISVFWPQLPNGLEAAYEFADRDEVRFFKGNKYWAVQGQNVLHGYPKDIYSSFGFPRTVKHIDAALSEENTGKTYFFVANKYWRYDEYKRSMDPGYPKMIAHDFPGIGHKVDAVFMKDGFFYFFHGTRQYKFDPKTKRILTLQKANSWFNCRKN
Source text: Collagenase Inhibition Assay:
The collagen was acetylated ^3 H type 1 bovine collagen prepared by the method of Cawston and Murphy (methods in Enzymology 80, 711,1981) The samples were centrifuged to sediment undigested collagen and an aliquot of the radioactive supernatant removed for assay on a scintillation counter as a measure of hydrolysis.

[3] = target: T2, CD23 proteinase (Homo sapiens, UniProt O14672); assay: RPMI 8866 cell membrane CD23 cleavage activity assay (CD23 proteinase inhibition); format: biochemical; settings: RPMI 8866 cell membranes
T2 construct: Plasma membranes from RPMI 8866 cells, a human Epstein-Barr virus transformed B-cell line; endogenous in cells; host or cells: RPMI 8866 (human EBV-transformed B-cell line), enriched plasma membranes
T2 sequence (O14672 214-748): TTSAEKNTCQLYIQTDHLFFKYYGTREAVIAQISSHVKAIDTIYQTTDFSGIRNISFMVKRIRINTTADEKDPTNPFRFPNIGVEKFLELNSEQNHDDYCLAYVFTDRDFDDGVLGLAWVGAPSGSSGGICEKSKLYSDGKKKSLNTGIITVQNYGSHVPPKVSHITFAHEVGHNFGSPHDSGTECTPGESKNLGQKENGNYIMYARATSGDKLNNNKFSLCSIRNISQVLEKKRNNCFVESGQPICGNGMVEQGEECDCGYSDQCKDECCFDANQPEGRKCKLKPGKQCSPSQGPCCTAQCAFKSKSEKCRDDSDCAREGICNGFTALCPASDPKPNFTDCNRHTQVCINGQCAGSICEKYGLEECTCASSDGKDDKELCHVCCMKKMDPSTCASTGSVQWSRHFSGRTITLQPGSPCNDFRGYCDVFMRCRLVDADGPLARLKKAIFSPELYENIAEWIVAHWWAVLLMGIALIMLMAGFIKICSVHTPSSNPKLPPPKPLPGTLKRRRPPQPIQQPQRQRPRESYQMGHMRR
Procedure: Procedure 1: The ability of test compounds to inhibit the release of soluble CD23 was investigated by use of the following procedure.
Cells resuspended in homogenization buffer (20 mM HEPES pH 7.4, 150 mM NaCl, 1.5 mM MgCl2, 1 mM DTI) are broken by N2 cavitation in a Parr bomb and the plasma membrane fraction mixed with other membranes is recovered by centrifugation at 10,000×g. The light pellet is resuspended in 0.2 M potassium phosphate, pH 7.2 using 2 ml per 1-3 g wet cells and the nuclear pellet is discarded. […] The phases are separated by brief centrifugation at 1000×g and the PEG (upper) phase is collected, diluted 3-5 fold with 20 mM potassium phosphate buffer pH 7.4, and centrifuged at 100,000×g to recover membranes in that phase. The pellet is resuspended in phosphate-buffered saline and consists of 3-4 fold enriched plasma membranes as well as some other cell membranes (e.g. lysosomes, Golgi). The membranes are aliquoted and stored at -80° C.
The amount of soluble CD23 made by 0.5 ug membrane protein in a total volume of 50 ul phosphate-buffered saline is measured by EIA and compared to the amount made in the presence of various concentrations of inhibitors. Inhibitors are prepared in solutions of water or dimethylsulfoxide (DMSO) and the final DMSO concentration is not more than 2%.

Structure (SMILES): CNC(=O)[C@H](Cc1ccccc1)NC(=O)[C@H](CC(C)C)[C@H](CSc1cccs1)C(=O)NO [Comparative Example, reference compound]
- inhibition at 1 µM ([1]; Homo sapiens): 76.4 ± 0.9%

Structure (SMILES): CNC(=O)[C@@H](NC(=O)[C@H](Cc1ccc2ccccc2c1)[C@H](O)C(=O)NO)C(C)(C)C [Example 1, N'-[3S-Hydroxy-4-(N-hydroxyamino)-2R-(2-naphthylmethyl)succinyl]-S-tert-leucine-N-methylamide]
- IC50 [2]: > 10 µM
- inhibition at 1 µM ([3]; at 1 uM): 88%

Structure (SMILES): CNC(=O)[C@H](Cc1ccccc1)NC(=O)[C@H](Cc1ccc2ccccc2c1)[C@H](O)C(=O)NO [Example 2, N'-[3S-Hydroxy-4-(N-hydroxyamino)-2R-(2-naphthylmethyl)succinyl]-S-phenylalanine-N-methylamide]
- inhibition at 1 µM ([1]; at 1 uM, human monocytes, LPS 200 ng/ml, 18-20 hrs): 45%
- IC50 ([2]; 37° C., 18 h, acetylated 3H type 1 bovine collagen, read-out: Collagenase inhibition IC50): 8.6 µM
- inhibition at 2 µM ([3]; at 2 uM): 90%
